For one series, the system named is EVI2B. Briefly: siRNA dose response, EVI2B mRNA knockdown, bDNA Assay. The series is classed as cell-based, human. As to conditions: A172, 24 hr. As for the experimental part: (§1) Dose response curves for siRNAs were generated in vitro using a variety of cell lines according to Table 4.
(§2) Briefly, cells were seeded in 96-well plates and reverse transfected with siRNA, Lipofectamine® 2000 (0.5 uL/well; ThermoFisher), and, in some cases, a reporter plasmid (50 ng/well). The reporter plasmid (psiCHECK™-2, Promega) encoded both firefly luciferase and the gene of interest fused to renilla luciferase; silencing of the gene of interest results in proportional silencing of renilla luciferase but leaves firefly luciferase unaffected as an internal control.
(§3) After 24 hr incubation at 37° C., mRNA knockdown was measured using an endpoint assay. For targets without a reporter plasmid, a branched DNA (bDNA) assay was performed according to the manufacturer's instructions (QuantiGene® Singleplex Gene Expression Assay, ThermoFisher) to measure both the target gene and GAPDH (housekeeping gene) mRNA. Data are plotted as siRNA concentration (nM) vs. remaining mRNA (ratio of target gene to GAPDH, normalized to mock siRNA-transfected cells). For targets with a reporter plasmid, a Dual-Glo® Luciferase Assay was performed according to the manufacturer's instructions (Promega) to measure firefly and renilla luciferase expression. Data are plotted as siRNA concentration (nM) vs. remaining mRNA (ratio of renilla to firefly luminescence, normalized to mock siRNA-transfected cells).
(§4) For all dose response curves, a 4-parameter logistic model was applied to determine the IC50 of each siRNA sequence (Table 5 and FIG. 2). Data shown in Table 5 and FIG. 2 represent the mean of quadruplicates, +/−standard deviation.
In turn, “XD-10485: siRNA targeting EVI2B (sense 5'-gucAAAAAuucAccuAGGAdTsdT-3'; antisense 5'-UCCuAGGUGAAUUUUUGACdTsdT-3'; RNA with 2'-O-methyl and phosphorothioate modifications, case key not given here, as printed in the source, key not given here)” displayed a 50% inhibitory concentration (IC50) of 1.38 nM.
Substance “XD-10486: siRNA targeting EVI2B (sense 5'-ggAuuuAucuuAGauAcuAdTsdT-3'; antisense 5'-uAGuAUCuAAGAuAAAUCCdTsdT-3'; RNA with 2'-O-methyl and phosphorothioate modifications, case key not given here, as printed in the source, key not given here)” came in with an IC50 of 0.225 nM.
Still for that read-out and setting: the result for “XD-10487: siRNA targeting EVI2B (sense 5'-cauAcuAAuuGGuguAcuudTsdT-3'; antisense 5'-AAGuAcACcAAUuAGuAUGdTsdT-3'; RNA with 2'-O-methyl and phosphorothioate modifications, case key not given here, as printed in the source, key not given here)” reads 0.156 nM.
The same measure, in the same setting: to “XD-10488: siRNA targeting EVI2B (sense 5'-agcuAuAAucAucauuGuAdTsdT-3'; antisense 5'-uAcAAUGAUGAUuAuAGCUdTsdT-3'; RNA with 2'-O-methyl and phosphorothioate modifications, case key not given here, as printed in the source, key not given here)” belongs 2.55 nM; to “XD-10489: siRNA targeting EVI2B (sense 5'-cucccAAcucuGAucAAGAdTsdT-3'; antisense 5'-UCUUGAUcAGAGUUGGGAGdTsdT-3'; RNA with 2'-O-methyl and phosphorothioate modifications, case key not given here, as printed in the source, key not given here)”, 0.013 nM.

Another series deals with SELPLG. Kind of series: siRNA dose response, SELPLG mRNA knockdown, bDNA Assay. It counts as cell-based, human. As to conditions: THP-1, 24 hr. As for the experimental part: as §1, §2, §3, §4
Take “XD-09261: siRNA targeting SELPLG (sense 5'-ccAccGAAuAUGAguAccudTsdT-3'; antisense 5'-AGGuACUcAuAUUCGGUGGdTsdT-3'; as printed in the source, key not given here)”: the IC50 worked out at 0.386 nM.
Turning to “XD-09262: siRNA targeting SELPLG (sense 5'-ccGAAuAuGAGuAccuAGAdTsdT-3'; antisense 5'-UCuAGGuACUcAuAUUCGGdTsdT-3'; as printed in the source, key not given here)”, inhibition was half-maximal at 1.35 nM (IC50).
Still for that read-out and setting: to “XD-09263: siRNA targeting SELPLG (sense 5'-gcAcAGAccAcucaAcccAdTsdT-3'; antisense 5'-UGGGUUGAGUGGUCUGUGCdTsdT-3'; as printed in the source, key not given here)” belongs 2.96 nM.
The same measure, in the same setting: the result for “XD-09264: siRNA targeting SELPLG (sense 5'-accAAAAGAGGucuGuucAdTsdT-3'; antisense 5'-UGAAcAGACCUCUUUUGGUdTsdT-3'; as printed in the source, key not given here)” reads 1.96 nM; that for “XD-09265: siRNA targeting SELPLG (sense 5'-aaGcAGAcGGGcAaGuGGAdTsdT-3'; antisense 5'-UCcACUUGCCCGUCUGCUUdTsdT-3'; RNA with 2'-O-methyl and phosphorothioate modifications, case key not given here, as printed in the source, key not given here)”, 0.486 nM.
Same read-out and setting: to “XD-09266: siRNA targeting SELPLG (sense 5'-aguAcuGAAGAGugAcGGAdTsdT-3'; antisense 5'-UCCGUcACUCUUcAGuACUdTsdT-3'; RNA with 2'-O-methyl and phosphorothioate modifications, case key not given here, as printed in the source, key not given here)” belongs 0.207 nM.
In the case of “XD-09267: siRNA targeting SELPLG (sense 5'-acuGAAGAGuGAcgGAcuudTsdT-3'; antisense 5'-AAGUCCGUcACUCUUcAGUdTsdT-3'; RNA with 2'-O-methyl and phosphorothioate modifications, case key not given here, as printed in the source, key not given here)”, the midpoint of inhibition, the IC50, lay at 1.07 nM.
Same read-out and setting: the result for “XD-09268: siRNA targeting SELPLG (sense 5'-ccAAGGGcAGAccuuucuudTsdT-3'; antisense 5'-AAGAAAGGUCUGCCCUUGGdTsdT-3'; RNA with 2'-O-methyl and phosphorothioate modifications, case key not given here, as printed in the source, key not given here)” reads 0.471 nM.

The test system of a further series is TNFAIP8L2. Briefly: siRNA dose response, TNFAIP8L2 mRNA knockdown, bDNA Assay. The series is classed as cell-based, human. As to conditions: THP-1, 24 hr. As to the method:
as §1, §2, §3, §4
In turn, “XD-09760: siRNA targeting TNFAIP8L2 (sense 5'-ggAccAGGccGuGaucucudTsdT-3'; antisense 5'-AGAGAUcACGGCCUGGUCCdTsdT-3'; RNA with 2'-O-methyl and phosphorothioate modifications, case key not given here, as printed in the source, key not given here)” registered an IC50 of 0.058 nM. That is a picomolar value.
On the same count and under the same terms, to “XD-09761: siRNA targeting TNFAIP8L2 (sense 5'-ggucAGGuGGAGAucucuudTsdT-3'; antisense 5'-AAGAGAUCUCcACCUGACCdTsdT-3'; RNA with 2'-O-methyl and phosphorothioate modifications, case key not given here, as printed in the source, key not given here)” belongs 0.701 nM.

The next series concerns TBXAS1. Briefly: siRNA dose response, TBXAS1 mRNA knockdown, bDNA Assay. It counts as cell-based, human. As to conditions: A549, 24 hr. As for the experimental part: as §1, §2, §3, §4
Substance “XD-10490: siRNA targeting TBXAS1 (sense 5'-gccGAcAGcGuucuGuuuudTsdT-3'; antisense 5'-AAAAcAGAACGCUGUCGGCdTsdT-3'; RNA with 2'-O-methyl and phosphorothioate modifications, case key not given here, as printed in the source, key not given here)” gave an IC50 of 0.573 nM.
The same measure, in the same setting: the result for “XD-10491: siRNA targeting TBXAS1 (sense 5'-cuGcAAGcGuuucuucGAAdTsdT-3'; antisense 5'-UUCGAAGAAACGCUUGcAGdTsdT-3'; RNA with 2'-O-methyl and phosphorothioate modifications, case key not given here, as printed in the source, key not given here)” reads 0.048 nM.
Same read-out and setting: the result for “XD-10492: siRNA targeting TBXAS1 (sense 5'-gcccGGAuuuuGcccAAuAdTsdT-3'; antisense 5'-uAUUGGGcAAAAUCCGGGCdTsdT-3'; RNA with 2'-O-methyl and phosphorothioate modifications, case key not given here, as printed in the source, key not given here)” reads 1.44 nM; that for “XD-10493: siRNA targeting TBXAS1 (sense 5'-ggAuuuuGcccAAuAAGAAdTsdT-3'; antisense 5'-UUCUuAUUGGGcAAAAUCCdTsdT-3'; RNA with 2'-O-methyl and phosphorothioate modifications, case key not given here, as printed in the source, key not given here)”, 0.239 nM; that for “XD-10494: siRNA targeting TBXAS1 (sense 5'-caAuAAGAAccGAgAcGAAdTsdT-3'; antisense 5'-UUCGUCUCGGUUCUuAUUGdTsdT-3'; RNA with 2'-O-methyl and phosphorothioate modifications, case key not given here, as printed in the source, key not given here)”, 0.049 nM.
The substance “XD-10495: siRNA targeting TBXAS1 (sense 5'-gaAccGAGAcGAAcuGAAudTsdT-3'; antisense 5'-AUUcAGUUCGUCUCGGUUCdTsdT-3'; RNA with 2'-O-methyl and phosphorothioate modifications, case key not given here, as printed in the source, key not given here)” came in with an IC50 of 0.125 nM.
The same measure, in the same setting: to “XD-10496: siRNA targeting TBXAS1 (sense 5'-agAcGAAcuGAAugGcuuudTsdT-3'; antisense 5'-AAAGCcAUUcAGUUCGUCUdTsdT-3'; as printed in the source, key not given here)” belongs 0.061 nM; to “XD-10497: siRNA targeting TBXAS1 (sense 5'-ccAuGGGcGuGcAaGAcuudTsdT-3'; antisense 5'-AAGUCUUGcACGCCcAUGGdTsdT-3'; RNA with 2'-O-methyl and phosphorothioate modifications, case key not given here, as printed in the source, key not given here)”, 0.137 nM; to “XD-10498: siRNA targeting TBXAS1 (sense 5'-gcGuGcAAGAcuuuGAcAudTsdT-3'; antisense 5'-AUGUcAAAGUCUUGcACGCdTsdT-3'; RNA with 2'-O-methyl and phosphorothioate modifications, case key not given here, as printed in the source, key not given here)”, 0.273 nM.

For the origin of these results see US20210189342A1, “COMPOSITIONS AND METHODS FOR MODULATING MONOCYTE AND MACROPHAGE INFLAMMATORY PHENOTYPES AND IMMUNOTHERAPY USES THEREOF” (Verseau Therapeutics, Inc., priority 2018, published 2021).
